Results reported in patent publication US20090215883A1, “Pharmaceutical formulation comprising taxane, a solid composition of taxane, a process for preparing said solid composition of taxane, a solubilizing composition of said solid composition of taxane, and a kit for the injectable formulation of taxane” (ERIOCHEM S.A., priority 2006, published 2009).

Experiment: Laboratory tests of direct dissolution in tensoactives
Assay type: physicochemical

Direct dissolution in pure polysorbate 80 (pure polysorbate 80): cannot be dissolved directly | Direct dissolution in tensoactive aqueous solution (tensoactive aqueous solution (aqueous Solutol HS15 for the solid composition), no organic solvent): cannot be dissolved directly
SMILES: CC(=O)O[C@@]12CO[C@@H]1C[C@H](O)[C@@]1(C)C(=O)[C@H](O)C3=C(C)[C@@H](OC(=O)[C@H](O)[C@@H](NC(=O)OC(C)(C)C)c4ccccc4)C[C@@](O)([C@@H](OC(=O)c4ccccc4)[C@H]21)C3(C)C [trihydrate docetaxel, docetaxel]
